Laboratory results from patent publication US5510345A, “Biologically active eburnamenine derivatives, pharmaceutical compositions containing them and process for preparing same” (Richter Gedeon Vegyeszeti Gyar Rt., priority 1992, dated 1996).
Structures can show the parent of a compound that is named as a salt.

Legend:
[1] = tested on: NADPH-induced lipid peroxidation in rat brain microsomes; experiment: Inhibition of the NADPH-induced (enzymatically induced) lipid peroxidation in brain microsomes; assay type: biochemical, rat (male Hannover-Wistar); conditions: 20 min, 37° C., pH 6.8, 0.4 mM NADPH, malondialdehyde at 535 nm, N.I.: no inhibition
From the text: The pharmacological effect of the eburnamenine derivatives of the formula (I) was studied as described hereinafter. […] The antioxidative effect was investigated on microsomes prepared from rat brain J. Neurochem. 37, pages 422-426 (1981)! and on rat brain homogenate J. Biol Chem. 262, pages 10438-10440 (1987)!. Inhibition of the NADPH-induced lipid peroxidation in brain microsomes Male Hannover-Wistar rats with a body weight of 150-250 g were used for the preparation of microsomes. After decapitation, the whole brain of the rat was removed and homogenized in a 10-fold volume of ice-cold 0.25M saccharose solution. The homogenate was centrifuged in a Hitachi CR 26H equipment at 15000×g at 4° C. for 10 minutes, then the supernatant was collected and centrifuged in a Hitachi SC[…] equipment at 78000×g at 4° C. for 60 minutes. After suspending the precipitate in 0.15M potassium chloride solution, the protein content of the obtained solution was determined and then adjusted to 10 mg/ml concentration. The microsome thus obtained was frozen in a dry ice-acetone mixture and stored at -70° C. until use. The components of the incubation mixtures were: 50 mM tris(hydroxymethyl)aminomethane hydrochloride (pH 6.8), 0.2 mM ferric chloride, 1 mM potassium dihydrogen phosphate, 0.5 mM adenosine-5'-diphosphate, 0.2 mg of microsomes as well as the compound to be tested. The incubation was carried out with a final volume of 1 ml and an incubation time of 20 minutes at a temperature of 37° C. The lipid peroxidation was induced by adding 0.4 mM NADPH ([…], reduced form). […] The formation of malondialdehyde was determined by using thiobarbituric acid. After stopping the reaction, 1 ml of 1% thiobarbituric acid solution each was added to the samples, which were then 10 placed in a water bath of about 100° C. for 10 minutes. Subsequently, the samples were centrifuged at 2000×g in a Janetzki K70 apparatus at 4° C. for 10 minutes. The absorbance value of the colored supernatant was measured at 535 nm in a Hitachi 150-20 spectrophotometer. Malondialdehyde bis(diethylacetal) was used as reference compound. The IC50 values of the compounds were determined on the basis of the concentration/effect correlations thereof and are indicated in Table I.

[2] = tested on: Fe^2+-induced lipid peroxidation in rat brain homogenate; experiment: Effect on the Fe^2+-induced (non-enzymatically induced) lipid peroxidation in brain homogenate; assay type: biochemical, rat (Hannover-Wistar); conditions: for IC50: rat brain homogenate, 20 min, 37° C., pH 7.4, 8 mM ferrous diammonium disulfate solution (5 μl), malondialdehyde at 535 nm, read-out: Inhibition of the Fe^2+-induced lipid peroxidation IC50; for antioxidant activity compared with tirilazad mesylate / inhibition of the Fe^2+-induced lipid peroxidation compared with silymarin or ellagic acid / inhibitory effect on the Fe^2+-induced lipid peroxidation compared with DL-α-tocopherol: in words, from Table I
Experimental: Effect on the Fe^2 +-induced lipid peroxidation in brain homogenate
After decapitating Hannover-Wistar rats weighing 150-220 g each, the whole brain was homogenized in 9 volumes of icecold Krebs-Ringer's buffer containing 15 mM 4-(2-hydroxyethyl)-1-(piperazinylethanesulfonic acid (abbreviated: HEPES, pH 7.4), 140 mM sodium chloride, 3.6 mM potassium chloride, 1.5 mM calcium chloride, 0.7 mM magnesium chloride, 1.4 mM potassium dihydrogen phosphate and 10 mM glucose!. Then, the protein content of the solution was determined and adjusted to 10 mg/ml concentration.
After adding the inhibitory agent to be tested in a volume of 5 ml to 200 μl of the homogenate, the incubation mixture was incubated at 37° C. for 20 minutes. The Fe^2+ -induced lipid peroxidation was accomplished by adding 5 μl of 8 mM ferrous diammonium disulfate Fe(NH4)2 (SO4)2 ! solution. After passing of the incubation time, the reaction was stopped by adding 1 ml of a stopping solution containing 0.8M hydrogen chloride in trichloroacetic acid solution of 12.5%; then the samples were centrifuged at 2000×g in a Janetzki apparatus at 4° C. for 10 minutes.
To 0.5 ml portion of the supernatant, 1 ml of 1% thiobarbituric acid solution was added, then the samples were placed in a water bath of 100° C. for 20 minutes. The color intensity developed was determined at 535 nm with the aid of a Hitachi 150-20 spectrophotometer by using malondialdehyde bis(diethylacetal) as reference compound.

Row | Inhibition of the NADPH-induced lipid peroxidation IC50 [1] | IC50 [2] [µM] | IC50 [1] [µM] | SMILES | antioxidant activity compared with tirilazad mesylate [2] | inhibition of the Fe^2+-induced lipid peroxidation compared with silymarin or ellagic acid [2] | inhibitory effect on the Fe^2+-induced lipid peroxidation compared with DL-α-tocopherol [2]
1 | N.I. | 10.5 | – | Cc1c(C)c2c(c(C)c1O)CCC(C)(CCCC(C)CCCC(C)CCCC(C)C)O2 (racemic) [DL-α-Tocopherol, reference compound] | – | – | –
2 | – | 124 | 24.2 | CC[C@@]12C=C(C(=O)N3CCN(c4cc(N5CCCC5)nc(N5CCCC5)n4)CC3)n3c4c(c5ccccc53)CCN(CCC1)[C@H]42 [Compound 1, 1-(3α,16α)-eburnamenine-14-carbonyl!-4-2,6-bis(pyrrolidino)-4-pyrimidinyl!piperazine] | reaches and even exceeds to some extent the lipid peroxidation-inhibiting effect of tirilazad mesylate | – | –
3 | – | 112 | 6.2 | CC[C@@]12C=C(CN3CCN(c4cc(N5CCCC5)nc(N5CCCC5)n4)CC3)n3c4c(c5ccccc53)CCN(CCC1)[C@H]42 [Compound 2, 1-{ (3α,16α)-eburnamenine-14-yl!methyl}-4-2,6-bis(pyrrolidino)-4-pyrimidinyl!piperazine trihydrobromide] | reaches and even exceeds to some extent the lipid peroxidation-inhibiting effect of tirilazad mesylate | – | –
4 | – | 11.4 | 2.4 | CCC12C=C(C(=O)N3CCN(c4cc(N5CCCC5)nc(N5CCCC5)n4)CC3)n3c4c(c5ccccc53)CCN(CCC1)C42 (stereo not drawn) [Compound 3, 1-(16α)-eburnamenine-14-carbonyl!-4-2,6-bis(pyrrolidino)-4-pyrimidinyl!piperazine] | – | more effectively than the hepatoprotective silymarin or the anticancerogenic ellagic acid | reaches the antioxidant activity of the therapeutically used DL-α-tocopherol
5 | – | 10.3 | 3.1 | CCC12C=C(C(=O)N3CCN(c4cc(N5CCCC5)nc(N5CCCC5)n4)CC3)n3c4c(c5ccccc53)CCN(CCC1)C42 (stereo not drawn) [Compound 4, 1-(3α)-eburnamenine-14-carbonyl!-4-2,6-bis(pyrrolidino)-4-pyrimidinyl!piperazine] | – | more effectively than the hepatoprotective silymarin or the anticancerogenic ellagic acid | reaches the antioxidant activity of the therapeutically used DL-α-tocopherol
6 | – | 51 | 47.2 | O=c1oc2c(O)c(O)cc3c(=O)oc4c(O)c(O)cc1c4c23 [Ellagic acid, 4,4',5,5',6,6'-hexahydrodiphenic acid 2,6':2',6-dilactone, reference compound] | – | – | –
7 | – | 135 | 121 | C[C@@H]1C[C@H]2[C@@H]3CCC4=CC(=O)C=C[C@]4(C)C3=CC[C@]2(C)[C@H]1C(=O)CN1CCN(c2cc(N3CCCC3)nc(N3CCCC3)n2)CC1 [Tirilazad mesylate, 16α-methyl-21-{4-2,4-bis(pyrrolidino)6-pyrimidinyl!-1-piperazinyl}-pregna-1,4,9(11)-trien-3,20-dione methanesulfonate, reference compound] | – | – | –
